Legend:
STZ-diabetic mice = experiment: Sucrose challenge in diabetic mice; type: in vivo
Protocol: Animal model. Mice were made diabetic as described above and were allotted to eight groups (10 animals per group) as follows: […] Treatment and Measurement. Test samples were prepared at appropriate concentrations so that the required doses were delivered in a volume of 0.2 mL/20 g body weight. Acarbose was also dissolved in 0.5% CMC ([…]) and given at a dose of 25 mg/kg BW. Ten minutes after gavaging of samples, blood was sampled from tail vein for glucose measurement (Time 0). The animals were then gavaged with sucrose (20% in water at a dose of 2 g/kg body weight). […] A group of non-diabetic mice were given an equivalent volume of saline (0.2 ml/20 g BW).

[1] = test system: STZ-diabetic mice (KunMing strain); experiment: 4-week treatment study in streptozotocin-induced diabetic mice; type: in vivo
Protocol: Animal Model. […] Diabetes was induced in mice with a single injection of streptozotocin (STZ). After fasting for 12 hrs, male mice with body weight above 20 g were given STZ dissolved in sodium citrate buffer via tail vein at a dose of 110 mg/kg body weight. […] Diabetic animals were divided into 5 groups (10 mice per group). Of these, 3 groups were treated with test samples, one group was a control group, receiving vehicle alone, and one group received metformin, an oral anti-diabetic agent. A sixth group, consisting of non-diabetic mice, was also included for comparison. They were treated with vehicle alone. Mice were housed 5 to a cage with free access to food and water. Test Samples and Dose. A. nodosum samples tested were as follows: 1) crude extract, CE 2) polyphenolic fraction, PPF 3) polysaccharide fraction, PSF Samples were dissolved in carboxymethylcellulose (CMC; 0.5%). Test sample solutions were prepared every morning at a concentration of 20 mg/ml in distilled water and given via gavage at a volume of 0.2 mL/20 g BW to deliver a dose of 200 mg/kg body weight. The control groups were gavaged with distilled water (0.2 mL/20 g BW). […] Animals were treated daily for 4 weeks. Measurements.

[2] = sucrose challenge, acarbose-treated mice
[3] = STZ-diabetic mice, Day 28, dose 200 mg/kg, mean ± S.D.
[4] = STZ-diabetic mice, daily gavage, printed dose 200 mg/kg, mean ± S.D.

`C[C@H]1O[C@H](O[C@H]2[C@H](O)[C@@H](O)[C@@H](O[C@H]3[C@H](O)[C@@H](O)C(O)O[C@@H]3CO)O[C@@H]2CO)[C@H](O)[C@@H](O)[C@@H]1N[C@H]1C=C(CO)[C@@H](O)[C@H](O)[C@H]1O` (stereo partly drawn) [Acarbose, acarbose] was tested, and the “serum glucose level, 0 min” value (STZ-diabetic mice; sucrose challenge 2 g/kg, dose 25 mg/kg, 0 min) was 15.64 ± 2.6 mmol/L, the “serum glucose level, 10 min” value (STZ-diabetic mice; sucrose challenge 2 g/kg, dose 25 mg/kg, 10 min) was 21.71 ± 3.6 mmol/L and the “serum glucose level, 30 min” value (STZ-diabetic mice; sucrose challenge 2 g/kg, dose 25 mg/kg, 30 min) was 24.67 ± 4.1 mmol/L. The “serum glucose level, 60 min” value (STZ-diabetic mice; sucrose challenge 2 g/kg, dose 25 mg/kg, 60 min) was 19.80 ± 4.8 mmol/L, the “serum glucose level, 120 min” value (STZ-diabetic mice; sucrose challenge 2 g/kg, dose 25 mg/kg, 120 min) was 14.29 ± 2.9 mmol/L and the “area-under-the-curve (AUC) for glucose” value (STZ-diabetic mice; [2]) was 2340 units (mmol/L×120 min.). The “reduction of glucose AUC versus STZ-mice” value (STZ-diabetic mice; [2]) was 33%.

In the case of `CN(C)C(=N)N=C(N)N` [Metformin, metformin], the “serum glucose versus STZ-diabetic mice (in words)” value ([1]; 4-week treatment, P<0.05) is reported as “significantly lower serum glucose at each of the time points”, the “blood total antioxidant level (in words)” value ([1]; Day 28) is reported as “significant increases in antioxidant activity” and the “glycated Hb versus STZ-diabetic mice (in words)” value ([1]; Day 28) is reported as “reduced”. The “total cholesterol versus STZ-diabetic mice (in words)” value ([1]; Day 28) was “reduced”, the “liver glycogen level (in words)” value ([1]; Day 28, STZ-diabetic mice) was “significantly increased liver glycogen level” and the “AntIoxidant activity (U/ml serum)” value [1, 3] was 8.15 ± 1.8 U/ml serum. For the same compound, the “Glycated Hb” value [1, 3] was 5.22 ± 0.5 mmol/L, the “Liver glycogen (mg/g wet tissue)” value [1, 3] was 5.51 ± 0.8 mg/g wet tissue and the “Total Cholesterol” value [1, 3] was 1.93 ± 0.7 mmol/L. The “Blood glucose (mM) Day 7” value [1, 4] was 13.04 ± 5.8 mM, the “Blood glucose (mM) Day 14” value [1, 4] was 11.60 ± 4.1 mM and the “Blood glucose (mM) Day 21” value [1, 4] was 12.38 ± 4.7 mM. The “Blood glucose (mM) Day 28” value [1, 4] was 13.59 ± 7.7 mM and the “Blood glucose (mM) Day 0” value ([1]; STZ-diabetic mice, start of treatment period, mean ± S.D.) was 13.50 ± 2.5 mM.

From patent publication US20080280994A1, “Ascophyllum Compositions and Methods” (OCEAN NUTRITION CANDA LTD., priority 2004, published 2008)
